Key:
Human δ-opioid (DOP) = target: T1, Human δ-opioid (DOP) (Homo sapiens, UniProt P41143); assay: Radioligand binding, human δ-opioid (DOP) membranes, FlashPlate, [3H]-Bremazocine; details: compound at 10 μM, [3H]-Bremazocine
T1 construct: purchased Perkin Elmer Biosignal
In short: (§1)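 Cloned human receptor membranes were coated onto FlashPlate wells and incubated with radioligand and compound (added from a 0.5 mM DMSO daughter plate) for 1 hour at room temperature in the dark. Scintillation counting gave percent inhibition, with DMSO defining total and reference ligand defining non-specific binding.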

Human opioid (ORL1) = target: T2, Human opioid (ORL1) (Homo sapiens, UniProt P41146); assay: Radioligand binding, human opioid ORL1 membranes, FlashPlate, [125I]-Nociceptin; details: compound at 10 μM, [125I]-Nociceptin
T2 construct: purchased Perkin Elmer Biosignal
T2 sequence (P41146 whole entry): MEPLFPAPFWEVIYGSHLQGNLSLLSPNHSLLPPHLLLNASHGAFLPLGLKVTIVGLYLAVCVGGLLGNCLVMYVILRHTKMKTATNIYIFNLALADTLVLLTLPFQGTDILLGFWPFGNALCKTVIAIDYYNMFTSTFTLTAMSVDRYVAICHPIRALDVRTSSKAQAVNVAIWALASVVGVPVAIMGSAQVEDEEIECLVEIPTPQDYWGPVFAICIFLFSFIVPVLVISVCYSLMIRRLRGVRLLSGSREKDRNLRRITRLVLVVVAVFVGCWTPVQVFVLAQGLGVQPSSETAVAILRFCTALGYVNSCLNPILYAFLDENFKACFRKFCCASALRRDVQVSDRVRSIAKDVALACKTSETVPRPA
In short: as §1

Human melanocortin (MC5) = target: T3, Human melanocortin (MC5) (Homo sapiens, UniProt P33032); assay: Radioligand binding, human melanocortin MC5 membranes, FlashPlate, [125I]-NDP-αMSH; details: compound at 10 μM, [125I]-NDP-αMSH
T3 construct: purchased Perkin Elmer Biosignal
T3 sequence (P33032 whole entry): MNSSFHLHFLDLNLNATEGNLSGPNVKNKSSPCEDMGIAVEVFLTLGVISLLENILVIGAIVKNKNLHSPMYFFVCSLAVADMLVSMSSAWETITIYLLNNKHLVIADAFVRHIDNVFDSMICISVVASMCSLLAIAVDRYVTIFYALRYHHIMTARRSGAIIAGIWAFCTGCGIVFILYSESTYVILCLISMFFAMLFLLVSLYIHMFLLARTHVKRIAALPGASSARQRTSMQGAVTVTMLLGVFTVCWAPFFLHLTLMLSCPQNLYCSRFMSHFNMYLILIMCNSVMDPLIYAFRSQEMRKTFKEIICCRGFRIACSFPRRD
In short: as §1

Human Melanocortin (MC4) = target: T4, Human Melanocortin (MC4) (Homo sapiens, UniProt P32245); assay: Radioligand binding, human melanocortin MC4 membranes, FlashPlate, [125I]-NDP-αMSH; details: compound at 10 μM, [125I]-NDP-αMSH
T4 construct: purchased Perkin Elmer Biosignal
T4 sequence (P32245 whole entry): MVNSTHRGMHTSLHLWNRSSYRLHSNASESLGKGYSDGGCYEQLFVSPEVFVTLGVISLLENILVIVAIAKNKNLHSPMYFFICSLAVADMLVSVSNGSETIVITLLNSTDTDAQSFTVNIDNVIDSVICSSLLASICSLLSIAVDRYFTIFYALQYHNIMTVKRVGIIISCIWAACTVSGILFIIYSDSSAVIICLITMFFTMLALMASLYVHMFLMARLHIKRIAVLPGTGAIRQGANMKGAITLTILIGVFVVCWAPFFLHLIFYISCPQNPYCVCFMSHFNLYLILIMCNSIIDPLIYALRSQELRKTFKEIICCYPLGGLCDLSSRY
In short: as §1

[1] = target: T5, Human neuropeptide Y (NPY-Y1) (Homo sapiens, UniProt P25929); assay: Radioligand binding, human neuropeptide Y NPY-Y1 membranes, FlashPlate, [125I]-PYY; details: compound at 10 μM, [125I]-PYY
T5 construct: purchased Perkin Elmer Biosignal
T5 sequence (P25929 1-384): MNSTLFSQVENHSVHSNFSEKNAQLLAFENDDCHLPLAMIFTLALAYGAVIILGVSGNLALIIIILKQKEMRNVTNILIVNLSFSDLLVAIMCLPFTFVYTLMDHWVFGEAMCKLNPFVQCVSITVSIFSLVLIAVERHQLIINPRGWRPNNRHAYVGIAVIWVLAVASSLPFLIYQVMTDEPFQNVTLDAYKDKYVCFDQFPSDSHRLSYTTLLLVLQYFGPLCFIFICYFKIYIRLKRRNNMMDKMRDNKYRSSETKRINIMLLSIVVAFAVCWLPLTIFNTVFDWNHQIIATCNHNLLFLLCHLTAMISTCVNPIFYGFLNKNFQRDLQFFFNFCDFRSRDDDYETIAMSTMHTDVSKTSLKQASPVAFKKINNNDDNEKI
In short: as §1

Human Melanocortin (MC3) = target: T6, Human Melanocortin (MC3) (Homo sapiens, UniProt P41968); assay: Radioligand binding, human melanocortin MC3 membranes, FlashPlate, [125I]-NDP-αMSH; details: compound at 10 μM, [125I]-NDP-αMSH
T6 construct: purchased Perkin Elmer Biosignal
T6 sequence (P41968 whole entry): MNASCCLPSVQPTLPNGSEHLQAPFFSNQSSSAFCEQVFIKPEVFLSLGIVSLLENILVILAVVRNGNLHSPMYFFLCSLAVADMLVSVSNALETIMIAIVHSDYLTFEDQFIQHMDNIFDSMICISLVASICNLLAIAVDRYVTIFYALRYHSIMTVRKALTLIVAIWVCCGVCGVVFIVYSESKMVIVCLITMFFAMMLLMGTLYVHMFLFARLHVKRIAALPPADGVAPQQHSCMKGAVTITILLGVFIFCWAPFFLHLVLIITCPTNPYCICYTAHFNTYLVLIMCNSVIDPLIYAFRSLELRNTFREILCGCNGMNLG
In short: as §1

[2] = target: T7, Human melanin-concentrating hormone (MCH1) (Homo sapiens, UniProt Q99705); assay: Radioligand binding, human melanin-concentrating hormone MCH1 membranes, FlashPlate, [125I]-S36057; details: compound at 10 μM
T7 construct: purchased Perkin Elmer Biosignal
T7 sequence (Q99705 whole entry): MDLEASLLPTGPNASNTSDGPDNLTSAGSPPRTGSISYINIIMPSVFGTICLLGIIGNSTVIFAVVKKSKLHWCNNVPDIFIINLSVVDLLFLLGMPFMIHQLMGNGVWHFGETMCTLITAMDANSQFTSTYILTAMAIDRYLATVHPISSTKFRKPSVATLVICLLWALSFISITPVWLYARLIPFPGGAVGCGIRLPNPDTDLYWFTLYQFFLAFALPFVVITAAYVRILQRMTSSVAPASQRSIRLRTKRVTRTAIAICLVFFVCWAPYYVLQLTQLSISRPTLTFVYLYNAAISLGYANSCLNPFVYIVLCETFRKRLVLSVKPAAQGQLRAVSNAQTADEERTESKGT
In short: as §1

Mouse urotensin (mUR2) = target: T8, Mouse urotensin (mUR2) (Mus musculus, UniProt Q8VIH9); assay: Radioligand binding, mouse urotensin mUR2 membranes, FlashPlate, [125I]-Urotensin II; details: compound at 10 μM, [125I]-Urotensin II
T8 construct: purchased Perkin Elmer Biosignal
T8 sequence (Q8VIH9 1-385): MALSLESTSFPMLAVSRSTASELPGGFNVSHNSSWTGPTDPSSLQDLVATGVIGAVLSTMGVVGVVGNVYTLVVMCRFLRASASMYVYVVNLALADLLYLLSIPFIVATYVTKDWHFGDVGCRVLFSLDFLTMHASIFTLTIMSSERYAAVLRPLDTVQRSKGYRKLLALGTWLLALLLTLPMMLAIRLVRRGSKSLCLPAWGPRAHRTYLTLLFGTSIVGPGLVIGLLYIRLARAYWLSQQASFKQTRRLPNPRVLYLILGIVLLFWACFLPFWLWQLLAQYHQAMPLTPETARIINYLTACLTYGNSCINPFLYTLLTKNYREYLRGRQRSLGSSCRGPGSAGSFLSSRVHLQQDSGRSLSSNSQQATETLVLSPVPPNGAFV
In short: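 Cloned mouse urotensin (mUR2) receptor membranes from Perkin Elmer Biosignal were immobilized in FlashPlate microplates using a proprietary coating. Each well got 19.5 μl buffer, then 0.5 μl of DMSO, reference ligand, or compound. Adding 5 μl of [125I]-Urotensin II, diluted to 5× final concentration in binding buffer, started binding. Plates were sealed with TopSeal-A and incubated 1 hour at room temperature in the dark. Wells were counted for 30 seconds each on a TopCount after a 60-second delay, and percentage inhibition was calculated.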

Human κ-Opioid (KOP) = target: T9, Human κ-Opioid (KOP) (Homo sapiens, UniProt P41145); assay: Radioligand binding, human κ-opioid (KOP) membranes, filtration, [3H]-Diprenorphine; details: compound at 10 μM, [3H]-Diprenorphine
T9 construct: purchased Perkin Elmer Biosignal
T9 sequence (P41145 whole entry): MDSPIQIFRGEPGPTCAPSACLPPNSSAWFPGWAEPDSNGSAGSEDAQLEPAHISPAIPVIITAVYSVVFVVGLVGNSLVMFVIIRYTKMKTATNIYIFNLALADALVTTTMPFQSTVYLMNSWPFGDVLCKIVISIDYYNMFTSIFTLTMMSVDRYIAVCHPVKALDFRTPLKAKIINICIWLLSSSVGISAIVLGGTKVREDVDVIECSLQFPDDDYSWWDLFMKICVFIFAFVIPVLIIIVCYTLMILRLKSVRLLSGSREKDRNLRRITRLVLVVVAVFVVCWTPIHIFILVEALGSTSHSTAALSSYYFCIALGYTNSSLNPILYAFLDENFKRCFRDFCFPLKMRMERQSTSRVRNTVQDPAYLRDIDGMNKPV
In short: (§2)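 Membranes from cloned human receptors were incubated with compound and radioligand for 1 hour at room temperature. Bound ligand was collected on 0.3% PEI-soaked filters, washed with cold 50 mM Tris-HCl pH 7.4, and counted by scintillation. Percent inhibition was computed against DMSO totals and reference-ligand nonspecific wells.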

Human μ-opioid (MOP) = target: T10, Human μ-opioid (MOP) (Homo sapiens, UniProt P35372); assay: Radioligand binding, human μ-opioid (MOP) membranes, FlashPlate, [3H]-Naloxone; details: compound at 10 μM, [3H]-Naloxone
T10 construct: purchased Perkin Elmer Biosignal
T10 sequence (P35372 whole entry): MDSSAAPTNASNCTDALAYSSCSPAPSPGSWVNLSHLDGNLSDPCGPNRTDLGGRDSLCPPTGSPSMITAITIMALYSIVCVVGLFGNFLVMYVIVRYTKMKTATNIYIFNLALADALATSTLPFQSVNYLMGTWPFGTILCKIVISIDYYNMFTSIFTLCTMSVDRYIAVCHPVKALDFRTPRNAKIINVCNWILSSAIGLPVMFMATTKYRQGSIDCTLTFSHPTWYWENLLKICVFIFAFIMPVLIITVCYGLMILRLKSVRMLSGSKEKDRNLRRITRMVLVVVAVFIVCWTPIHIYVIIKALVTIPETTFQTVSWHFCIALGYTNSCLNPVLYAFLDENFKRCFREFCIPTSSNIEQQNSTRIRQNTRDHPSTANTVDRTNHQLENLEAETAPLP
In short: as §1

Human neurokinin (NK1) = target: T11, Human neurokinin (NK1) (Homo sapiens, UniProt P25103); assay: Radioligand binding, human neurokinin NK1 membranes, filtration, [125I]-Substance P; details: compound at 10 μM, [125I]-Substance P
T11 construct: purchased Perkin Elmer Biosignal
T11 sequence (P25103 whole entry): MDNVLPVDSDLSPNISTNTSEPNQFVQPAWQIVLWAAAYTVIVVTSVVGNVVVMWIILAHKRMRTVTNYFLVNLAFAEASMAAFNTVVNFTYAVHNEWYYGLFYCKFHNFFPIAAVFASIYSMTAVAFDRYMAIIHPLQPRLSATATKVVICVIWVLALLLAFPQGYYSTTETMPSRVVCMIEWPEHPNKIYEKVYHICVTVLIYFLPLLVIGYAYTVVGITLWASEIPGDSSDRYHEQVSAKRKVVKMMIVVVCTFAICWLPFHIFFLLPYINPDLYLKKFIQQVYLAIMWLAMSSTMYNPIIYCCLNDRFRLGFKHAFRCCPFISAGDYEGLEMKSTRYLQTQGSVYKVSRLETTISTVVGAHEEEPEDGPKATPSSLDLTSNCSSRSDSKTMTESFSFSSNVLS
In short: as §2

T1 sequence (P41143 whole entry): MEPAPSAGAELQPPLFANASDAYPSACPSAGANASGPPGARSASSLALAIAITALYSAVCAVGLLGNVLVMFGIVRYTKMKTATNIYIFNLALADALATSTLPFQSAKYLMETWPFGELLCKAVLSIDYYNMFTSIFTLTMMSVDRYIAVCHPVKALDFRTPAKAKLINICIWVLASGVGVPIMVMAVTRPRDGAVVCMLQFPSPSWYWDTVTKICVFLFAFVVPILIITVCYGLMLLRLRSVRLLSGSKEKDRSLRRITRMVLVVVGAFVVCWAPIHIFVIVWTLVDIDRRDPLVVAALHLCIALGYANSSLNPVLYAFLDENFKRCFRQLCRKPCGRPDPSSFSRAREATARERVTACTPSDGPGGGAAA

**Q.** `CO[C@H]1[C@H](O)[C@@H](COCc2ccc(Cl)cc2)OC(OCc2cccc(O)c2)[C@@H]1NC(=O)CCCN` (stereo partly drawn) [compound 169] was tested. Which “A1 radioligand binding, percentage inhibition” value (Human δ-opioid (DOP)) did it give?
**A.** Its value is “− (“−” indicates less than 50% inhibition at 10 μM)”.

**Q.** And the “A10 radioligand binding, percentage inhibition” value (Human opioid (ORL1))?
**A.** The value was “− (“−” indicates less than 50% inhibition at 10 μM)”.

**Q.** What about the “A5 radioligand binding, percentage inhibition” value (Human melanocortin (MC5)) of the same molecule?
**A.** Its value is “− (“−” indicates less than 50% inhibition at 10 μM)”.

**Q.** What about the “A4 radioligand binding, percentage inhibition” value (Human Melanocortin (MC4)) of the same molecule?
**A.** The value was “− (“−” indicates less than 50% inhibition at 10 μM)”.

**Q.** And the “A9 radioligand binding, percentage inhibition” value [1]?
**A.** The value was “− (“−” indicates less than 50% inhibition at 10 μM)”.

**Q.** And the “A3 radioligand binding, percentage inhibition” value (Human Melanocortin (MC3))?
**A.** Its value is “− (“−” indicates less than 50% inhibition at 10 μM)”.

**Q.** What about the “A6 radioligand binding, percentage inhibition” value ([2]; [125I]-S36057) of the same molecule?
**A.** The value was “− (“−” indicates less than 50% inhibition at 10 μM)”.

**Q.** And the “A11 radioligand binding, percentage inhibition” value (Mouse urotensin (mUR2))?
**A.** The value was “− (“−” indicates less than 50% inhibition at 10 μM)”.

**Q.** And the “A2 radioligand binding, percentage inhibition” value (Human κ-Opioid (KOP))?
**A.** The value was “− (“−” indicates less than 50% inhibition at 10 μM)”.

**Q.** And the “A7 radioligand binding, percentage inhibition” value (Human μ-opioid (MOP))?
**A.** Its value is “− (“−” indicates less than 50% inhibition at 10 μM)”.

**Q.** And the “A8 radioligand binding, percentage inhibition” value (Human neurokinin (NK1))?
**A.** The value was “+ (“+” indicates greater than 50% inhibition at 10 μM)”.

**Q.** `COC[C@H]1OC(OCc2ccc3ccccc3c2)[C@H](NC(=O)CCCN)[C@@H](OCc2ccc3ccccc3c2)[C@@H]1O` (stereo partly drawn) [compound 338] was tested. Which “A1: inhibition of radioligand binding, human δ-opioid (DOP)” value (Human δ-opioid (DOP)) did it give?
**A.** The value was “− (“−” indicates less than 50% inhibition at 10 μM)”.

**Q.** And the “A10: inhibition of radioligand binding, human opioid (ORL1)” value (Human opioid (ORL1))?
**A.** Its value is “− (“−” indicates less than 50% inhibition at 10 μM)”.

**Q.** What about the “A5: inhibition of radioligand binding, human melanocortin (MC5)” value (Human melanocortin (MC5)) of the same molecule?
**A.** Its value is “− (“−” indicates less than 50% inhibition at 10 μM)”.

**Q.** And the “A4: inhibition of radioligand binding, human melanocortin (MC4)” value (Human Melanocortin (MC4))?
**A.** The value was “− (“−” indicates less than 50% inhibition at 10 μM)”.

**Q.** And the “A9: inhibition of radioligand binding, human neuropeptide Y (NPY-Y1)” value [1]?
**A.** The value was “− (“−” indicates less than 50% inhibition at 10 μM)”.

**Q.** What about the “A3: inhibition of radioligand binding, human melanocortin (MC3)” value (Human Melanocortin (MC3)) of the same molecule?
**A.** Its value is “− (“−” indicates less than 50% inhibition at 10 μM)”.

**Q.** What about the “A6: inhibition of radioligand binding, human melanin-concentrating hormone (MCH1)” value ([2]; [125I]-S36057) of the same molecule?
**A.** The value was “− (“−” indicates less than 50% inhibition at 10 μM)”.

**Q.** And the “A11: inhibition of radioligand binding, mouse urotensin (mUR2)” value (Mouse urotensin (mUR2))?
**A.** The value was “− (“−” indicates less than 50% inhibition at 10 μM)”.

**Q.** What about the “A2: inhibition of radioligand binding, human κ-opioid (KOP)” value (Human κ-Opioid (KOP)) of the same molecule?
**A.** The value was “− (“−” indicates less than 50% inhibition at 10 μM)”.

**Q.** What about the “A7: inhibition of radioligand binding, human μ-opioid (MOP)” value (Human μ-opioid (MOP)) of the same molecule?
**A.** Its value is “+ (“+” indicates greater than 50% inhibition at 10 μM)”.

**Q.** What about the “A8: inhibition of radioligand binding, human neurokinin (NK1)” value (Human neurokinin (NK1)) of the same molecule?
**A.** The value was “+ (“+” indicates greater than 50% inhibition at 10 μM)”.

**Q.** Which “A1: inhibition of radioligand binding” value (Human δ-opioid (DOP); FlashPlate) does the source give for `COCC1OC(OCCc2ccccc2)C(NC(=O)CN)C(OCc2ccc(Cl)cc2)C1O` (stereo not drawn) [compound 219] here?
**A.** The value was “− (“−” indicates less than 50% inhibition at 10 μM)”.

**Q.** What about the “A10: inhibition of radioligand binding” value (Human opioid (ORL1); FlashPlate) of the same molecule?
**A.** Its value is “− (“−” indicates less than 50% inhibition at 10 μM)”.

**Q.** And the “A5: inhibition of radioligand binding” value (Human melanocortin (MC5); FlashPlate)?
**A.** The value was “+ (“+” indicates greater than 50% inhibition at 10 μM)”.

**Q.** What about the “A4: inhibition of radioligand binding” value (Human Melanocortin (MC4); FlashPlate) of the same molecule?
**A.** The value was “− (“−” indicates less than 50% inhibition at 10 μM)”.

**Q.** What about the “A9: inhibition of radioligand binding” value ([1]; FlashPlate) of the same molecule?
**A.** The value was “− (“−” indicates less than 50% inhibition at 10 μM)”.

**Q.** And the “A3: inhibition of radioligand binding” value (Human Melanocortin (MC3); FlashPlate)?
**A.** Its value is “− (“−” indicates less than 50% inhibition at 10 μM)”.

**Q.** And the “A6: inhibition of radioligand binding” value ([2]; [125I]-S36057, FlashPlate)?
**A.** Its value is “− (“−” indicates less than 50% inhibition at 10 μM)”.

**Q.** What about the “A11: inhibition of radioligand binding” value (Mouse urotensin (mUR2); FlashPlate) of the same molecule?
**A.** Its value is “− (“−” indicates less than 50% inhibition at 10 μM)”.

**Q.** What about the “A2: inhibition of radioligand binding” value (Human κ-Opioid (KOP); filtration) of the same molecule?
**A.** The value was “− (“−” indicates less than 50% inhibition at 10 μM)”.

**Q.** And the “A7: inhibition of radioligand binding” value (Human μ-opioid (MOP); FlashPlate)?
**A.** The value was “− (“−” indicates less than 50% inhibition at 10 μM)”.

**Q.** What about the “A8: inhibition of radioligand binding” value (Human neurokinin (NK1); filtration) of the same molecule?
**A.** The value was “+ (“+” indicates greater than 50% inhibition at 10 μM)”.

Reference: patent US20080009418A1, “Selective Inhibitors” (Alchemia LTD., priority 2004, published 2008)
